Earlier results, collected in US8431806B2, “Liposomal formulations of anthracycline agents and cytidine analogs” (Celator Pharmaceuticals, Inc., priority 2004, dated 2013).

Conditions: in vivo

COc1cccc2c1C(=O)c1c(O)c3c(c(O)c1C2=O)C[C@@](O)(C(C)=O)C[C@@H]3O[C@H]1C[C@H](N)[C@H](O)[C@H](C)O1 [Daunorubicin]
half-life for elimination: 19 h
oral absorption (po): low
